Results: BindingDB's records for doi:10.1016/s0960-894x(99)00486-2 (Dupont Pharmaceuticals, 1999)

Target: T1, Gag-Pol polyprotein [588-1027]/[588-1147] (Human immunodeficiency virus 1, UniProt P04585)
T1 construct: 588-1027; 588-1147
Test: HIV-1 RT Assay
Details: pH 8.2; 37 °C
From the text: The IC50 of reverse transcriptase is the concentration that inhibits 50% of recombinant HIV-1 RT RNA-directed DNA polymerase activity in vitro.

| Structure (SMILES) | IC50 |
| --- | --- |
| O=C1Nc2c(cc(F)c(F)c2F)C(C#CC2CC2)(C(F)(F)F)O1 (stereo not drawn) [4-(2-cyclopropylethynyl)-6,7,8-trifluoro-4-(trifluoromethyl)-2,4-dihydro-1H-3,1-benzoxazin-2-one] | > 2000 nM |
| O=C1Nc2ccc(-c3ccccc3)cc2C(C#CC2CC2)(C(F)(F)F)O1 (stereo not drawn) [4-(2-cyclopropylethynyl)-6-phenyl-4-(trifluoromethyl)-2,4-dihydro-1H-3,1-benzoxazin-2-one] | > 2000 nM |
| O=C1Nc2c(Cl)cc(Cl)cc2C(C#CC2CC2)(C(F)(F)F)O1 (stereo not drawn) [6,8-dichloro-4-(2-cyclopropylethynyl)-4-(trifluoromethyl)-2,4-dihydro-1H-3,1-benzoxazin-2-one] | > 2000 nM |
